Reference: patent US12357657B2, “Silver-/gold-compounds and methods thereof” (priority 2019, dated 2025)

Key:
[1] = tested on: K. pneumoniae 9607 (MCR-1+); assay: Murine infection model, bacterial loads in liver and spleen; format: in vivo, mice; conditions: monotherapy, single i.p. dose 1 hr post-infection, 48 hrs; colistin 2 mg kg^−1, auranofin 0.5 mg kg^−1, AgNO3 1.5 mg kg^−1
Method: For local infection experiment, an overnight culture of K. pneumoniae 9607 (MCR-1^+) was performed 1:250 dilution in LB broth and re-grew to about OD600 0.5 at 37° C., 250 rpm. Bacterial pellets were collected and washed by PBS buffer three times for further use. Mice were infected intraperitoneally (i.p.) with a dose of 2×10^6 CFU of bacteria in PBS. […] All the mice were scarified at 48 hrs following systemic infection, and bacterial loads in livers and spleens were examined by agar plating. […] Body weights and mice survival were monitored till endpoint of the experiment.

[2] = target: MCR-1-S (Escherichia coli, UniProt A0A0R6L508); conditions: ICP-MS
Method: The equilibrium dialysis was used to monitor the exact binding process. Apo-MCR-1-S was put in the inner side of dialysis membrane and outer side was supplemented with Au^+, Ag^+ or Zn^2+ at different molar ratios. Zn^2+ displacement analysis was performed by adding equivalents of Au^+ and Ag^+ into outer side of the membrane.

[3] = tested on: E. coli CKE; assay: Murine systemic infection model, survival assay; format: in vivo, mice; conditions: for mice rescued from death: combination with colistin 1 mg kg^−1, single i.p. dose 0.5 hr post infection; for protection of mice from death: mono-therapy, AgNO3 0.75 mg kg^−1 or auranofin 0.25 mg kg^−1 i.p., within 72 hours
[4] = tested on: MCR-1-producing E. coli; assay: Mutant prevention concentration (MPC) test; format: cell-based; conditions: for mutant colonies: colistin alone at 16×MIC, or colistin with 30 μg mL^−1 of the compound; for MPI of colistin (MPC/MIC): in presence of 30 μg mL^−1 of the compound
From the text: Given the very notion of MIC, all susceptible bacterial cells are suppressed or killed by a dose above it. […] The dose of compounds at MIC adversely amplifies the population of those less-susceptible mutants. Thus, mutant prevention concentration (MPC), defined as a compound concentration that suppresses the growth of first-step resistant mutant in large quantity of susceptible bacterial population, together with mutant prevention index (MPI=MPC/MIC), is introduced to estimate the mutant prevention ability of exemplary compound combination. […] All the plates were incubated at 37° C. Upon incubation for 48 hours, up to 4 colonies were picked and re-cultured from any plates with observable colonies, followed by the measurement of their MIC values. […] The concentration that restricted the growth of mutant colonies was determined as MPC.

[5] = target: T1, full length MCR-1 (Escherichia coli, UniProt A0A0R6L508); format: biochemical; conditions: MCR-1 pre-treated with 10 molar equivalents, 25° C. overnight
T1 construct: The full length MCR-1 was pre-treated with or without 10 molar equivalents
Method: TLC plate was used to separate NBD-glycerol from the MCR-1 reaction mixture in a mobile phase [ethyl acetate:methanol:water, 7:2:1 (vol/vol)]. The reaction product was analyzed by exposing the TLC plate to UV light (455-485 nm) and visualizing the fluorescent signals with a gel imaging system. […] Cellular Thermal Shift Assay

[6] = tested on: MCR-1-negative E. coli; format: cell-based; conditions: MCR-1-negative E. coli strain
Method: (§1) MIC values of either antibiotics or Bi(III) compounds were determined firstly by standard broth micro-dilution method (Clinical and Laboratory Standards Institute (CLSI) M100-S20, 2010). Briefly, bacteria cells were cultured in LB broth overnight at 37° C. at 250 rpm and the optical density was measured at 600 nm (OD600) using a microtiter plate reader. The bacterial density was adjusted to about 1×10^6 CFU mL^−1 and checked by CFU counting on agar plates afterwards. Tested compounds were added triplicately into individual wells of flat-bottomed 96-well plates and performed two-fold serial dilution, followed by addition of prepared bacterial inoculum. The plate was then incubated at 37° C. overnight. Lanes with no antibiotics or bismuth compounds served as positive controls and lanes with no bacteria added served as negative controls. The MIC was determined as the lowest concentration of compounds that could inhibit the growth of microorganism by both visual reading and OD600 measurement.
(§2) Other procedures and the check of MIC were kept strictly the same. […] Synergism was defined as FICI≤0.5, indifference was defined as FICI>0.5 and <4, and antagonism was defined as FICI≥4. All of the determinations were performed at least in triplicate on different days.

[7] = target: apo-MCR-1-S (Escherichia coli, UniProt A0A0R6L508); assay: biochemical
Method: The apo-MCR-1-S without any tag was diluted into proper concentration for ITC assay. […] The stoichiometry of metal binding and binding affinities were obtained by fitting the data with proper equations and these assays were performed in triplicate.

[8] = target: Zn(II)-MCR-1-S (Escherichia coli, UniProt A0A0R6L508); conditions: PAR assay
Method: UV-visible spectra were collected by Varian Cary 50 spectrophotometer at a rate of 360 nm/min by using the 1 cm^−1 quartz cuvette. 4-(2-pyridylazo) resorcinol (PAR), a Zn(II) chelator, can strongly chelate free Zn^2+ to form Zn(PAR)2 complex, leading to an obvious migration of maximum absorbance peak from ca. 420 nm to ca. 500 nm. Herein, we incubated apo-MCR-1-S with 10 folds Zn^2+ in dialysis buffer (20 mM HEPES, pH=7.4, 50 mM NH4NO3). After 12 hour incubation, Zn(II)-MCR-1-S was separated into aliquots and then mixed with Ag(I), Au(I) or even their compounds at different molecular ratios. Dialysis buffer instead of these metal compounds was added into Zn(II)-MCR-1-S solution as negative controls. For positive control, 10-folds of Zn(II) were mixed with apo-MCR-1-S. By comparing the peak intensities among different groups, the amounts of released Zn(II) could be calculated. UV-visible spectra were recorded in a range of 220-600 nm at least 30 min later after incubation.

[9] = target: T2, MCR-1 (Escherichia coli, UniProt A0A0R6L508); format: cell-based, E. coli BL21(DE3); conditions: overnight exposure, in cellulo
T2 construct: solvable truncated MCR-1 fragment (200-541 aa) but without any tag; expressed in transfected cells; host or cells: E. coli BL21(DE3)
Method: Considering that MCR-1 is a transmembrane protein, we constructed a plasmid with solvable truncated MCR-1 fragment (200-541 aa) but without any tag and then transferred it into E. coli BL21(DE3). The cellular thermal shift assay was performed according to a general standard method. […] The bacterial pellets were harvested and washed with PBS for 3 times. The cell suspensions were aliquoted into PCR tubes and heat treatment was performed at the designated temperature for 3 mins in a 96-well thermal cycler. The tubes were cooled immediately at 25° C., and the heat treatments were repeated for three cycles. For the cell lysis, the samples were frozen-thawed in liquid nitrogen and thermal cycler was set at 25° C. The samples were vortexed gently after each cycle and centrifuged at 20,000×g to obtain the supernatant. All the samples were subjected to SDS-PAGE gel and electrotransferred to a PVDF membrane (Hybond-P, GE Healthcare). A PageRuler Prestained Protein Ladder #26616 (Thermo) was used as a standard marker.

[10] = tested on: MCR-producing E. coli; assay: In vitro serial passage resistance assay; format: cell-based; conditions: colistin combined with the compound
Method: The in vitro passage assay was also conducted to evaluate the antimicrobial durability of the combination. In a typical experiment, an overnight culture of MCR-producing E. coli was diluted to 10^7 CFU mL^−1 in LB broth. […] All the plates were incubated at 37° C. and the growth of cultures was checked at 24 h intervals. Cultures from the second highest concentrations that allowed growth were performed 1:1000 dilution into fresh medium supplemented with the same concentrations of drugs. For colistin, 1-fold of MIC was set as 4 μg mL^−1. This in vitro passage was repeated for 20 days. MIC of MER was determined every four passages.

[11] = tested on: MCR-producing E. coli; format: cell-based
Method: as §1, §2

[12] = tested on: S. flexneri (MCR-1+); format: cell-based; conditions: MCR-1 positive S. flexneri; AgNO3 10 μM, auranofin 3 μM, Au(PEt3)Cl 3 μM; untreated 4.1, MCR-1 negative 6.1
Method: Membrane potential assay was carried out based on a modified method according to manufacturer's instructions. […] The bacterial pellets were then resuspended in PBS supplemented with DiOC2 (30 μM) and stained at 37° C. for 30 mins. Stained bacteria were then assayed in a flow cytometer and the signals from FITC-A (488 nm, green gate) and PI-A (633 nm, red gate) were collected and then analyzed. S. flexneri without treatment served as the control.

apo-MCR-1-S, sequence (A0A0R6L508 200-541): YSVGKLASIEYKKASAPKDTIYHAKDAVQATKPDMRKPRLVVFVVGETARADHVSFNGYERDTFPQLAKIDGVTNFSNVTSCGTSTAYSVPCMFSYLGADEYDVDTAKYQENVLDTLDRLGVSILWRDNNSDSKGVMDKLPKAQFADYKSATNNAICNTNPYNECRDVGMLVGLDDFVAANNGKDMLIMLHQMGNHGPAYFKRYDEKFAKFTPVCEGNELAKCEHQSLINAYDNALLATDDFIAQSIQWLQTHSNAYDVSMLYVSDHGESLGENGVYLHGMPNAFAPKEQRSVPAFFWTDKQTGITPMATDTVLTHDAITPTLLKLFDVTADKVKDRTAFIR
MCR-1-S, sequence (A0A0R6L508 200-541): as above
T1 sequence (A0A0R6L508 whole entry): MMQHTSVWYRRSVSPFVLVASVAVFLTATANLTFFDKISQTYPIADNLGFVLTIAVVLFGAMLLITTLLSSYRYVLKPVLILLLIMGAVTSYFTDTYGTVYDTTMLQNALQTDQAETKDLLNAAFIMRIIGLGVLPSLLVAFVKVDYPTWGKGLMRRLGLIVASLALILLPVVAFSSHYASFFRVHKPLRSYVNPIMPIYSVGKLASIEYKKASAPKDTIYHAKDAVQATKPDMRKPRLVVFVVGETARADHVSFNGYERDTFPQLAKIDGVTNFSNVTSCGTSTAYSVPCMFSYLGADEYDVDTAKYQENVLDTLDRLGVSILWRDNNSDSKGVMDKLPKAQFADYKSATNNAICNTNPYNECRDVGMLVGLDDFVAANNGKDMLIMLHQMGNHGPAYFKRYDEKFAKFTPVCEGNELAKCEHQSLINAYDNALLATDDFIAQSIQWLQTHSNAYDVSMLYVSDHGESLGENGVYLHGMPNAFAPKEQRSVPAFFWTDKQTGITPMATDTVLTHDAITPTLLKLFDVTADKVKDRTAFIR
T2 sequence (A0A0R6L508 200-541): as the sequence (A0A0R6L508 200-541) above
Zn(II)-MCR-1-S, sequence (A0A0R6L508 200-541): as above

| SMILES | CFUs in liver and spleen [1] | replacement of protein bound metal by extraneous Zn(II) [2] | equivalents of metal that replaced about 3 molar equivalents of Zn(II) ([2]; equilibrium dialysis) [equivalent] | mice rescued from death [3] | protection of mice from death [3] | mutant colonies [4] | MPI of colistin (MPC/MIC) [4] | migration of NBD-glycerol (cleavage activity of MCR-1) [5] | inhibition in combination with colistin [6] | Kd [7] [nM] | release of Zn(II) from MCR-1-S upon titration [8] | decrease of cellular thermal stability of MCR-1, ΔTm [9] [°C] | fold rise of colistin MIC after 16 serial passages [10] [folds] | MIC of colistin in combination with the compound ([11]; checkerboard, lowest colistin MIC reached with increasing compound) [µg/mL] | FIC index (FICI) with colistin ([11]; synergism FICI≤0.5) | green/red fluorescent ratio after treatment [12] |
| --- | --- | --- | --- | --- | --- | --- | --- | --- | --- | --- | --- | --- | --- | --- | --- | --- |
| [Ag+] [AgNO3, silver nitrate] | ~10^5 cfu mL^−1 g^−1 | could not be replaced | 16 | 3 out of 6 | failed to protect any of the mice from death | no mutant colony was observable | 0.5 | none of AgNO3, AuCl or Au(PEt3)Cl treatment group exhibited observable migration | no inhibition was observed | ~200 | completely released | – | – | – | – | – |
| [Zn+2] [Zn(Ac)2, zinc(II) acetate] | – | – | – | – | – | – | – | – | – | ~2450 | – | – | – | – | – | – |
| CC(=O)OC[C@H]1O[C@@H]([S-])[C@H](OC(C)=O)[C@@H](OC(C)=O)[C@@H]1OC(C)=O.CCP(CC)CC.[Au+] [auranofin] | ~10^5 cfu mL^−1 g^−1 | – | – | protect all the infected mice from death | failed to protect any of the mice from death | no mutant colony was observable | 0.5 | – | no inhibition was observed | – | – | 5.2 | 4 | 0.25 | 0.375 | 6.1 |
